Where a SMILES comes first, the peptide text is derived from it. Bridges are numbered along the chain shown (N, C = ends). [ ]: non-standard residue; d: D form. The star is where a group is joined. hPhe(3-Cl-4-CF3) = N[C@@H](CCc1ccc(C(F)(F)F)c(Cl)c1)C(=O)O; NPrPhe(4-CF3) = CCCN[C@@H](Cc1ccc(C(F)(F)F)cc1)C(=O)O; NMeGly(cPent) = CN[C@H](C(=O)O)C1CCCC1; Pro(4S-Me) = C[C@@H]1CN[C@H](C(=O)O)C1; NMeD = CN[C@@H](CC(=O)O)C(=O)O; NMeL = CN[C@@H](CC(C)C)C(=O)O; Morpholide = C1CN(*)CCO1; Ac5c = NC1(C(=O)O)CCCC1; NEtG = CCNCC(=O)O; Sar = CNCC(=O)O
Molecular target: HRAS wild-type protein (Homo sapiens, UniProt P01112)
Sequence (P01112 whole entry): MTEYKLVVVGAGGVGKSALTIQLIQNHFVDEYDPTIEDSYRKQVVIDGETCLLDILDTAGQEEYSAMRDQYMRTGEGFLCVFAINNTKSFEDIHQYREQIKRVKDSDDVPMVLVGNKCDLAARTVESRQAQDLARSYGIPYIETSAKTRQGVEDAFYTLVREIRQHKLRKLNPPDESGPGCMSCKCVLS
Test: Binding to HRAS by surface plasmon resonance (SPR), KD and KD ratio to KRAS
Details: ratio of KD for HRAS wild-type protein to KD for KRAS
Description: (§1) Surface plasmon resonance was used to analyze the binding affinity of compounds for KRAS, NRAS, and HRAS. The apparatus used was Biacore 8K, 8K+, or T200 (GE Healthcare), and the running buffer used was HBS (10 mM HEPES-NaOH, 150 mM NaCl, pH 7.4) containing 1 mM DTT, 10 mM MgCl2, 0.01% Tween 20, 10 µM GDP, and 4% DMSO.
(§2) Biotinylated Avi-tag fusion KRAS, NRAS, and HRAS proteins were expressed in E. coli BL21 (DE3) strains, and after cells were homogenized, they were purified using Streptavidin Mutein Matrix and Superdex 75. After purification, GDP-loaded KRAS, NRAS, and HRAS proteins were immobilized on the surface of Sensor Chip CAP (Cytiva) coated with Biotin CAPture Reagent in an immobilization amount of about 100 to 300 RU. Binding of each compound was evaluated by the Single Cycle Kinetics method, and a running buffer or a compound solution was added to the RAS protein non-immobilized surface and the immobilized surface to obtain a binding response. The flow rate was set to 100 µL/min, and in the compound-adding cycle, compound solutions having different concentrations were intermittently added for 75 seconds each, starting from a low concentration. […] In the blank cycle, a running buffer was intermittently added and not the compound solution. The Biotin CAPture Reagent and RAS proteins were immobilized for each cycle, and at the end of each cycle, the sensor chip was regenerated by the regeneration solution appended to the Biotin CAPture Kit (Cytiva). Measurement was carried out at 30°C.
(§3) The resulting sensorgram was subjected to curve fitting based on a 1:1 binding model on Biacore Insight Evaluation Software or T200 Evaluation Software, and thereby the dissociation constant KD of each compound with respect to KRAS, NRAS, and HRAS was determined. […] Blank indicates a compound from which the KD value with respect to NRAS or HRAS was not obtained.

SMILES	HRAS /KRAS
CCC[C@H]1C(=O)N[C@@H]([C@@H](C)CC)C(=O)N(C2CC2)CC(=O)N(C)[C@H]2C/C=C\CCN(C2=O)[C@@H](Cc2ccc(C)cc2)C(=O)N(C)CC(=O)N[C@@H](CCc2ccc(C(F)(F)F)c(C3CC3)c2)C(=O)N2C[C@H](OCC)C[C@H]2C(=O)NC2(CC(C)(C)C2)C(=O)N(C)[C@@H](C2CCCC2)C(=O)N(C)[C@H](C(=O)N(C)C)CC(=O)N1C [PP2881]	A (a compound having 10 or more and less than 20 is denoted as A)
CCO[C@@H]1C[C@H]2C(=O)NC3(CC(C)(C)C3)C(=O)N(C)[C@@H](C3CCCC3)C(=O)N(C)[C@H](C(=O)N3CCCCC3)CC(=O)N(C)[C@H]3CCCCc4ccc(cc4)C[C@@H](C(=O)N(C)CC(=O)N[C@@H](CCc4ccc(C(F)(F)F)c(OC)c4)C(=O)N2C1)N1CC/C=C\C[C@@H](C1=O)N(C)C(=O)CN(C)C(=O)[C@H]([C@@H](C)CC)NC3=O [PP3093]	A (a compound having 10 or more and less than 20 is denoted as A)

Test system: human lung cancer strain NCI-H441
Test: not given
Format: cell-based
Details: not given
Description: A test compound was dispensed into a U-bottom 384-well plate as 40 nL serially diluted dimethyl sulfoxide solutions using a liquid handler Echo (LABCYTE). […] This cell suspension was dispensed in an amount of 40 µL per well into a plate containing the test compound, and cultured at 37°C in a 5% carbon dioxide gas incubator. Four days later, 20 µL of CellTiter-Glo (registered trademark) (Promega) was added to each well and […] was measured. […]

SMILES	IC50 [nM]
CCCN(C)C(=O)[C@@H]1CC(=O)N(C)[C@@H](CCOC)C(=O)N[C@@H]([C@@H](C)CC)C(=O)N(C)CC(=O)N(C)[C@H]2C/C=C\CCN(C2=O)[C@@H](Cc2ccc(C(F)(F)F)cc2)C(=O)N(C)CC(=O)N[C@@H](CCc2cc(F)c(C(F)(F)F)c(F)c2)C(=O)N2C[C@H](OCC)C[C@H]2C(=O)NC2(CC(C)(C)C2)C(=O)N(C)[C@@H](C2CCCC2)C(=O)N1C [PP2033]	11.8
CCCN1C(=O)CN(C)C(=O)CN(CC)C(=O)[C@H]([C@@H](C)CC)NC(=O)[C@H](CC(C)C)N(C)C(=O)C[C@@H](C(=O)N2CCOCC2)N(C)C(=O)[C@H](C2CCCC2)N(C)C(=O)C2(CCCC2)NC(=O)[C@@H]2C[C@H](C)CN2C(=O)[C@H](CCc2ccc(C(F)(F)F)c(Cl)c2)NC(=O)CN(C)C(=O)[C@@H]1Cc1ccc(C(F)(F)F)cc1 [PP0451] ([NMeL]I[NEtG][Sar][NPrPhe(4-CF3)][Sar][hPhe(3-Cl-4-CF3)][Pro(4S-Me)][Ac5c][NMeGly(cPent)][NMeD]-Morpholide; lactam N-11)	11.2
CC[C@H](C)[C@@H]1NC(=O)[C@H](CC)N(C)C(=O)C[C@@H](C(=O)N(C)CC)N(C)C(=O)[C@H](C2CCCC2)N(C)C(=O)C2(CC(C)(C)C2)NC(=O)[C@@H]2C[C@H](C)CN2C(=O)[C@H](CCc2cc(F)c(C(F)(F)F)c(F)c2)NC(=O)CN(C)C(=O)[C@H](Cc2ccc(C)cc2)N2CC/C=C\C[C@@H](C2=O)N(C)C(=O)CN(C)C1=O [PP1882]	20.2
CC[C@H](C)[C@@H]1NC(=O)[C@H](CC)N(C)C(=O)C[C@@H](C(=O)N(C)CC)N(C)C(=O)[C@H](C2CCCC2)N(C)C(=O)C2(CCC2)NC(=O)[C@@H]2C[C@H](C)CN2C(=O)[C@H](CCc2ccc(C(F)(F)F)c(OC)c2)NC(=O)CN(C)C(=O)[C@H](Cc2ccc(C)cc2)N2CC/C=C\C[C@@H](C2=O)N(C)C(=O)CN(C)C1=O [PP1853]	30.4
CCO[C@@H]1C[C@H]2C(=O)NC3(CCC3)C(=O)N(C)[C@@H](C(CC)CC)C(=O)N(C)[C@H](C)CC(=O)N(C)[C@@H](CC3CCCC3)C(=O)N[C@@H]([C@@H](C)CC)C(=O)N(C)CC(=O)N(C)[C@H]3C/C=C\CCN(C3=O)[C@@H](Cc3ccc(F)cc3)C(=O)N(C)CC(=O)N[C@@H](CCc3cc(F)c(C(F)(F)F)c(F)c3)C(=O)N2C1 [PP1523]	320
CC[C@H](C)[C@@H]1NC(=O)[C@H](CC)N(C)C(=O)C[C@@H](C(=O)N(C)CC)N(C)C(=O)[C@H](C2CCCC2)N(C)C(=O)C2(CC(C)(C)C2)NC(=O)[C@@H]2C[C@@H](C)CN2C(=O)[C@H](CCc2cc(F)c(C(F)(F)F)c(F)c2)NC(=O)CN(C)C(=O)[C@H](Cc2ccc(C)cc2)N2CC/C=C\C[C@@H](C2=O)N(C)C(=O)CN(C)C1=O [PP1884]	17.3

Molecular target: GDP-bound NRAS wild-type protein (Homo sapiens, UniProt P01111)
Sequence (P01111 whole entry): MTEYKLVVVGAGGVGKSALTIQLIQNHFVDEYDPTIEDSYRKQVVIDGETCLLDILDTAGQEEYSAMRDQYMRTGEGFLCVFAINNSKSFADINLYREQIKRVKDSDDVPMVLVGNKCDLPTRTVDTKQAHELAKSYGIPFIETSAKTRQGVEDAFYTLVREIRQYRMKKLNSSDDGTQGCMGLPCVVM
Test: Binding to NRAS by surface plasmon resonance (SPR), KD and KD ratio to KRAS
Details: ratio of KD for GDP-bound NRAS wild-type protein to KD for KRAS
Description: as §1, §2, §3

SMILES	NRAS /KRAS
CCC[C@H]1C(=O)N[C@@H]([C@@H](C)CC)C(=O)N(C2CC2)CC(=O)N(C)[C@H]2C/C=C\CCN(C2=O)[C@@H](Cc2ccc(C)cc2)C(=O)N(C)CC(=O)N[C@@H](CCc2ccc(C(F)(F)F)c(C3CC3)c2)C(=O)N2C[C@H](OCC)C[C@H]2C(=O)NC2(CC(C)(C)C2)C(=O)N(C)[C@@H](C2CCCC2)C(=O)N(C)[C@H](C(=O)N(C)C)CC(=O)N1C [PP2881]	A (a compound having 10 or more and less than 20 is denoted as A)
CCO[C@@H]1C[C@H]2C(=O)NC3(CC(C)(C)C3)C(=O)N(C)[C@@H](C3CCCC3)C(=O)N(C)[C@H](C(=O)N3CCCCC3)CC(=O)N(C)[C@H]3CCCCc4ccc(cc4)C[C@@H](C(=O)N(C)CC(=O)N[C@@H](CCc4ccc(C(F)(F)F)c(OC)c4)C(=O)N2C1)N1CC/C=C\C[C@@H](C1=O)N(C)C(=O)CN(C)C(=O)[C@H]([C@@H](C)CC)NC3=O [PP3093]	A (a compound having 10 or more and less than 20 is denoted as A)

Source: patent EP4603105A1, “PHARMACEUTICAL COMPOSITION CONTAINING CYCLIC COMPOUND HAVING SELECTIVE KRAS INHIBITORY EFFECT AGAINST HRAS AND NRAS” (CHUGAI SEIYAKU KABUSHIKI KAISHA, priority 2022, dated 2024)
